From article PMC9414551 (Pharmaceuticals, 2022)
pIC50, pKi: −log10 of the molar value. “And” between values parts separate entries of the source, which are not always exact repeats. Identical values can stand only once. Counter-ions that a name gives are not always drawn.

Tests used:
NMDAR = details: rat cortical membranes
NR1-2B NMDAR [1] = molecular target: T1, NR1-2B NMDAR (Homo sapiens, UniProt Q05586+Q13224); assay: Whole-cell automated patch-clamp (QPatch) in 1 mM Mg2+; type: cell-based; set-up: host or cells: CHO (CHO-hNR1-h2B), constitutive expression; details: 1 mM Mg2+
T1 sequence (Q13224 27-1484, other chains not shown): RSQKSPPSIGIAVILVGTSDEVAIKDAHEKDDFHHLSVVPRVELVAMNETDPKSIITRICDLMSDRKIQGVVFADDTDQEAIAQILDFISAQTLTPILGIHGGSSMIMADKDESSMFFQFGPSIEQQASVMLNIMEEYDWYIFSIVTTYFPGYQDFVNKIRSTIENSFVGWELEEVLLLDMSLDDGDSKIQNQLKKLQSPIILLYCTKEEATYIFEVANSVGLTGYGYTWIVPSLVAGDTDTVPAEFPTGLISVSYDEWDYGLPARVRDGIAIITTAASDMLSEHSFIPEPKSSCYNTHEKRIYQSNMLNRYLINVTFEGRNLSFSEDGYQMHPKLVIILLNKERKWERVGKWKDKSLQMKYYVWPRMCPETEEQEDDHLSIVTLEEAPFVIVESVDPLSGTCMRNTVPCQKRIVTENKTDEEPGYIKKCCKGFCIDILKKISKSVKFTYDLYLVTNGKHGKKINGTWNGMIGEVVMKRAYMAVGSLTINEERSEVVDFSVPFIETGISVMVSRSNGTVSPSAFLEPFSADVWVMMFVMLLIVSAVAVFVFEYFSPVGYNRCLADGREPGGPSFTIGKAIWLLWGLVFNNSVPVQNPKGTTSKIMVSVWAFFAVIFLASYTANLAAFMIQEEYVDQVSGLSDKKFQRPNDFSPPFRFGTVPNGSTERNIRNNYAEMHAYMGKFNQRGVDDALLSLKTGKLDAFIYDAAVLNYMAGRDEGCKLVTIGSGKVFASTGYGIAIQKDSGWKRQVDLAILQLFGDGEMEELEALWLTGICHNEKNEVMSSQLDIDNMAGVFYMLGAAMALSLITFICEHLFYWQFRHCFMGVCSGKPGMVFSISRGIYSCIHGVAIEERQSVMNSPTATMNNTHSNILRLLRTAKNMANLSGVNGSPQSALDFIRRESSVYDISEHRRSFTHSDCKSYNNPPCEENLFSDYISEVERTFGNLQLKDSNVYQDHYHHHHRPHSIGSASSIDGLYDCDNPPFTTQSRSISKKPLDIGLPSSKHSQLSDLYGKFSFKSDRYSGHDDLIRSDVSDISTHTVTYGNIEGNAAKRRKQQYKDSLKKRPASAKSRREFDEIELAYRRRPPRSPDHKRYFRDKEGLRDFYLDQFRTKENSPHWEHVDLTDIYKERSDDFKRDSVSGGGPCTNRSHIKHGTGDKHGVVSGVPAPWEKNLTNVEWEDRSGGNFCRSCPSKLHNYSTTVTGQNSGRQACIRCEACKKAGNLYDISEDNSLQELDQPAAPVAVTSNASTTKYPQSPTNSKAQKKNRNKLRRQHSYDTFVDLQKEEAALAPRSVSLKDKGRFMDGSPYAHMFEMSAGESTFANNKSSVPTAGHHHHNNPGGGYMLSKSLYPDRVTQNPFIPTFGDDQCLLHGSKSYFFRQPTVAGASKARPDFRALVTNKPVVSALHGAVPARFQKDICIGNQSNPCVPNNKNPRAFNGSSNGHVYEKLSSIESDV
Protocol: (§1) Data were obtained in automated patch-clamp platform. […] Statistical results of one-way analysis of variance (ANOVA) followed by Tukey’s multiple comparisons test also reported p < 0.05 (*), p < 0.01 (**), p < 0.001 (***), and p < 0.0001 (****). Glu is glutamate.
(§2) For QPatch experiments, cells were grown in T-flasks first at 37 °C, 5% CO2 for 3 to 4 h, then at 30 °C, 5% CO2 for 18 to 24 h in DMEM/F12 medium with added 500 μM ketamine and 10 μg/mL tetracycline (except for NR1-2B-CHO cells) without additional antibiotics. Cells were manually detached from the culture dish and automatically dispensed in QPatch wells with extracellular solution in the presence of 1 mM Mg^2+ and 500 μM ketamine.
(§3) Holding potential was −80 mV, and voltage protocol included a depolarizing 2-s step pulse to +60 mV to check the quality of the seal and cell NMDAR expression level, followed by a 2-s ramp-up to holding potential.

NR1-2C NMDAR [2] = molecular target: T2, NR1-2C NMDAR (Homo sapiens, UniProt Q05586+Q14957); assay: Whole-cell manual patch-clamp: current block, onset/offset kinetics and trapping, no Mg2+; details: test item 10 µM, −70 mV
T2 sequence (Q14957 20-1233, other chains not shown): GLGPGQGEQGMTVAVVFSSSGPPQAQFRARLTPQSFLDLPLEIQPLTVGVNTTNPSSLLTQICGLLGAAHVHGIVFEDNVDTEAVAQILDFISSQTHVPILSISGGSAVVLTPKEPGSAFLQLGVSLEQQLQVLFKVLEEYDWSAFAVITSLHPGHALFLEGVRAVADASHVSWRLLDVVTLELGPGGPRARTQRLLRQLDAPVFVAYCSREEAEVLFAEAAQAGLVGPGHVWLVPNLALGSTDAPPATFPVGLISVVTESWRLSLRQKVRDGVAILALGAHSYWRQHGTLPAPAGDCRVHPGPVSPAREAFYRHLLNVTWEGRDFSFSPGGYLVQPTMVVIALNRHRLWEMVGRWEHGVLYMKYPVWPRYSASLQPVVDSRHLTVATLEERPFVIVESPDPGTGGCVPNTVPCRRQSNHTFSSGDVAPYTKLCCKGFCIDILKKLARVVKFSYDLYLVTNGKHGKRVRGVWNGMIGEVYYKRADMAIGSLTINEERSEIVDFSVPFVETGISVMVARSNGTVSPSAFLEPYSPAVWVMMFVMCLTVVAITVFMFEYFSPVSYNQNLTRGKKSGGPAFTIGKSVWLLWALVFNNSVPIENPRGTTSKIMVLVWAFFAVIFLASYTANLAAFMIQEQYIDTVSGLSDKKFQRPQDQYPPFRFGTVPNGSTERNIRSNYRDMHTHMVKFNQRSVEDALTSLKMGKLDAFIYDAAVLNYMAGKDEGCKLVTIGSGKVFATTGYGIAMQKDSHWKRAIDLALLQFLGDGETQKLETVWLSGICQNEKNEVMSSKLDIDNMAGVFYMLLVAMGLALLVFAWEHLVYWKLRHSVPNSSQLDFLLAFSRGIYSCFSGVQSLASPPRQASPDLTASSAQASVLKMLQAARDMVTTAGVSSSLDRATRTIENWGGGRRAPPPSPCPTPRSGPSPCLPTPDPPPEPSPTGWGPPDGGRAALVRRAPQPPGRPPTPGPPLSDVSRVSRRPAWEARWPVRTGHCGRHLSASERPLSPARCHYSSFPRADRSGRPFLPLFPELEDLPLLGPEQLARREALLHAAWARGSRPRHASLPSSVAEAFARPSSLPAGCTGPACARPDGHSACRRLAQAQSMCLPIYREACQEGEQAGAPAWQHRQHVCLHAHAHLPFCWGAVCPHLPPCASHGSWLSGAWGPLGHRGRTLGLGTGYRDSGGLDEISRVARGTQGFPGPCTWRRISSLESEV

NR1-2C NMDAR [3] = molecular target: T2, NR1-2C NMDAR; assay: Whole-cell automated patch-clamp (QPatch) in 1 mM Mg2+; type: cell-based; set-up: host or cells: CHO (CHO-hN1-h2C), tetracycline-induced expression; details: 1 mM Mg2+
Protocol: as §1, §2, §3

NR1-2D NMDAR [4] = molecular target: T3, NR1-2D NMDAR (Homo sapiens, UniProt O15399+Q05586); assay: Whole-cell manual patch-clamp REL-1017 CRC in 1 mM MgCl2; details: 1 mM MgCl2, 1 μM L-glutamate, −60 mV
T3 sequence (O15399 28-1336, other chains not shown): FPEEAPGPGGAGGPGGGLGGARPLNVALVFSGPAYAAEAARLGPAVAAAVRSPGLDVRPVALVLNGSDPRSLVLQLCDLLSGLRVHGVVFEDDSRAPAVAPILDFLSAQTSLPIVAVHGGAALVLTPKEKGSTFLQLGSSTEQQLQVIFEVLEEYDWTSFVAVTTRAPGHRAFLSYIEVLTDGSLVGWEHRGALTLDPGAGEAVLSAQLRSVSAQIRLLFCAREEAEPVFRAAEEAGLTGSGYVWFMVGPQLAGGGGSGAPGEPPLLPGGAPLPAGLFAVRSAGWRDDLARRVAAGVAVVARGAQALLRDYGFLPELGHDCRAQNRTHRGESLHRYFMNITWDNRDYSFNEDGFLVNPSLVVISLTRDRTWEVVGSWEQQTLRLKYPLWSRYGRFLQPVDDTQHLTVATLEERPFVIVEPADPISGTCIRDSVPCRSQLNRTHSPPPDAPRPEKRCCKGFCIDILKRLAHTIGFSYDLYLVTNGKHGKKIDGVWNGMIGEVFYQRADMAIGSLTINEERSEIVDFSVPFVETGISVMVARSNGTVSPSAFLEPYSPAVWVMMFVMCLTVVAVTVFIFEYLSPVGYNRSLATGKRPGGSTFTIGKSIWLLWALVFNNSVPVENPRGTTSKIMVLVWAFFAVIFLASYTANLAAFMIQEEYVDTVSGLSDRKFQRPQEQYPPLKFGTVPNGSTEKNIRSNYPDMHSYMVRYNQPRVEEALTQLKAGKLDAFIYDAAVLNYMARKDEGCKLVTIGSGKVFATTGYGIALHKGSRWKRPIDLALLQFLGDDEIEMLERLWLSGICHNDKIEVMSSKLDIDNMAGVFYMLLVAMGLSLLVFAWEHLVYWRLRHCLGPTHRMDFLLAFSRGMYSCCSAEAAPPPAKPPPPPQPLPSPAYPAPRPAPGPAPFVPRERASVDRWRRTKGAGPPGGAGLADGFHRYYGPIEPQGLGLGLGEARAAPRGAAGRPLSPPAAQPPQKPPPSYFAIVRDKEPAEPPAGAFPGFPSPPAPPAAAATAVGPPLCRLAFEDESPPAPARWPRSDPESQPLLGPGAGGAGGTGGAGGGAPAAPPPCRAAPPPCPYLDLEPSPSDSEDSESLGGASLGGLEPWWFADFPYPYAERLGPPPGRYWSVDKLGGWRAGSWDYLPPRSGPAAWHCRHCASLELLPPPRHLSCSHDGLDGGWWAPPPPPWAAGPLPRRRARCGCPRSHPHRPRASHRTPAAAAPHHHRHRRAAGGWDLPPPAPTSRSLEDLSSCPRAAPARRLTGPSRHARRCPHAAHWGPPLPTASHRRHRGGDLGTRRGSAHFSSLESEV

NR1-2D NMDAR [5] = molecular target: T3, NR1-2D NMDAR; assay: Whole-cell automated patch-clamp (QPatch) in 1 mM Mg2+; type: cell-based; set-up: host or cells: CHO (CHO-hN1-h2D), tetracycline-induced expression; details: 1 mM Mg2+, −30 mV to −80 mV
Protocol: as §1, §2, §3

NR1-2B NMDAR [6] = molecular target: T1, NR1-2B NMDAR; assay: Whole-cell manual patch-clamp REL-1017 CRC in 1 mM MgCl2; details: 1 mM MgCl2, 1 μM L-glutamate, −60 mV
NR1-2A NMDAR = NR1-2A NMDAR (Homo sapiens, UniProt Q05586+Q12879); assay: as above; details: 1 mM MgCl2, 1 μM L-glutamate, −60 mV
[7] = 10 μM REL-1017, 1 μM L-glutamate
[8] = 10 μM REL-1017, 10 μM L-glutamate

COc1ccc2c(c1)[C@]13CCCC[C@@H]1[C@H](C2)N(C)CC3 [Dextromethorphan, dextromethorphan]
pIC50 (NMDAR; [3H]TCP 4 nM): 5.69
pKi (NMDAR; [3H]TCP, Cheng and Prusoff): 5.85

CCC(=O)C(C[C@H](C)N(C)C)(c1ccccc1)c1ccccc1 [REL-1017, dextromethadone HCl]
effect on L-glutamate-elicited current (NR1-2B NMDAR [1]; [7]): inactive
effect on L-glutamate-elicited current (NR1-2B NMDAR [1]; [8]): significantly reduced the elicited current only at −30 mV, −40 mV, and −50 mV
I1 (% Current) at end of test item addition, normalized to I0 (NR1-2C NMDAR [2]; 30 s co-application): 20.4%
I2 (% Current) at end of test item removal, normalized to I0 (NR1-2C NMDAR [2]; 50 s after removal): 98.5%
BR (residual block) (NR1-2C NMDAR [2]; after wash with glycine alone): 71.8 ± 1.1
B (initial block) (NR1-2C NMDAR [2]): 84 ± 1% and 83.8 ± 1.2 %
BT (trapped block, BR/B × 100) (NR1-2C NMDAR [2]): 85.9 ± 1.9%
Tau off (NR1-2C NMDAR [2]): 17.7 ± 1.0 s
Tau on (NR1-2C NMDAR [2]): 4.7 ± 0.21 s
effect on L-glutamate-elicited current (NR1-2C NMDAR [3]; [7]): inactive
effect on L-glutamate-elicited current (NR1-2C NMDAR [3]; [8]): inactive
Hill Slope (NR1-2D NMDAR [4]): 1.42
effect on L-glutamate-elicited current (NR1-2D NMDAR [5]; [7]): significantly reduced
effect on L-glutamate-elicited current (NR1-2D NMDAR [5]; [8]): significantly reduced
Hill Slope (NR1-2B NMDAR [6]): 1.17
Hill Slope (NR1-2A NMDAR): 1.06
